Laboratory results reported in patent US7012128B2, “Interaction between cyclin D1 and steroid receptor co-activators and uses thereof in assays” (TopoTarget UK Limited, priority 1998, dated 2006).

Columns and labels:
[1] = system: SRC family proteins (SRC-1, AIB-1); test: Co-immunoprecipitation with HA-tagged coactivators from COS-7 cells; assay type: binding; settings: absence of 17β-estradiol
Description: (§1) COS-7 cells were cotransfected with HA-tagged constructs encoding the nuclear receptor coactivators SRC-1, AIB-1 or p300 (Anzick et al., 1997; Chakravarti et al., 1996; Hanstein et al., 1996; Kamei et al., 1996; Onate et al., 1995) together with control plasmid, plasmids directing the synthesis of wild type cyclin D1 or D1 L254/255A mutant (D1-LALA). 12CA5 HA antibodies were used for immunoprecipitation of whole cell extracts prepared from these cells and co-immunoprecipitation of cyclin D1 (mutants) was examined by Western blot analysis using anti-cyclin D1 antibody. […] Precipitation with the anti-cyclin D1 antibody from the total lysate of the cells transfected with cyclin D1 and cyclin D1-LALA was similar. Binding of cyclin D1 and cyclin D1 L254/255A mutant to ER was then investigated. COS-7 cells were transfected with ER expression vector, cyclin D1 (mutant) and/or control plasmids. […] Differentially phosphorylated species of pRb were detected by Western blotting using the polyclonal pRb antibody (C15, Santa Cruz).
(§2) Cells were lysed in ELB containing 250 mM NaCl, 0.1% NP-40, 50 mM HEPES pH 7.0, 5 mM EDTA and protease inhibitors. […] After blocking with PBS containing 5% milk and 0.1% Tween-20, proteins were detected with monoclonal antibodies directed against cyclin D1 (DCS-6, Neomarkers) and peroxidase-conjugated goat anti-mouse IgG. […]

pRb = test: Phosphorylation of pRb in Rb-/- 3T3 cells; assay type: cell-based; settings: cells that lack cyclin D1-associated kinase activity, low serum
Description: as §1, with “plasmids. Monoclonal ER antibodies were used for immunoprecipitation of ER of whole cell extracts prepared from these cells and co-immunoprecipitation of cyclin D1 (mutant) was examined by Western blot analysis using monoclonal cyclin D1 antibodies. […] The activity of cyclin D1 and D1 L254/255A mutant in phosphorylation of pRb in Rb^−/− 3T3 cells was also investigated.” for “plasmids.”

ER = molecular target: T1, ER (Homo sapiens, UniProt P03372); test: Co-immunoprecipitation with ER from COS-7 cells; assay type: binding; parameters: expressed in transfected cells; host or cells: COS-7
T1 sequence (P03372 1-595): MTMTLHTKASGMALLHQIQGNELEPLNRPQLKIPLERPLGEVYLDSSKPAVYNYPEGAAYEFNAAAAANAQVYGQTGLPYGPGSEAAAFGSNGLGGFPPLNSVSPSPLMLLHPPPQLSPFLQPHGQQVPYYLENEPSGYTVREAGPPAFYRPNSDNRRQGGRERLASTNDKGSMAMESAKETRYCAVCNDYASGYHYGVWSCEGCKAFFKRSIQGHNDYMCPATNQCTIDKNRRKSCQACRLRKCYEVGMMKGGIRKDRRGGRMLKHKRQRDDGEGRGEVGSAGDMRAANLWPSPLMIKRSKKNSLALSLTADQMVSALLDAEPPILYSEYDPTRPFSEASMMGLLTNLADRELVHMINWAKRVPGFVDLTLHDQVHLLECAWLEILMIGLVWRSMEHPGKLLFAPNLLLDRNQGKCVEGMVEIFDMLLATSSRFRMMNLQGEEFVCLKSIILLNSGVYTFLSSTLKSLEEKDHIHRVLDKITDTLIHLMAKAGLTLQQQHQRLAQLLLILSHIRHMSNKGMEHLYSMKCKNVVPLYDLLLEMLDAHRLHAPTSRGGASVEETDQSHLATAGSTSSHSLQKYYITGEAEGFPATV
Description: as §1, §2

Question: “Cyclin D1-LALA: cyclin D1 mutant in which leucines 254 and 255 were mutated to alanines; dominant negative” was tested. Which “interaction with SRC family proteins” value [1] did it give?
Answer: The value was “did not interact”.

Question: And the “ability to phosphorylate pRb” value (pRb)?
Answer: The value was “unaffected”.

Question: And the “ability to bind ER” value (ER)?
Answer: Its value is “unaffected”.
